Test results as given in ChEMBL document CHEMBL1201862, “PubChem BioAssay data set” (2004).
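Cells were grown in 96-well plates and exposed to each compound for 48 hours at five concentrations; endpoints were interpolated linearly between bracketing concentrations, or set to the highest concentration if not reached. The concentration for 50% growth inhibition is given as GI50.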 Active and inactive are the calls of the source. Cut-off read from the data, not from the text of the source: active = GI50 up to about 1.1 µM and inactive = higher.

Columns and labels:
Test in all cases: DTP human tumour cell line panel, 48 h
[1] = test system: IGROV-1
[2] = test system: ACHN
[3] = test system: UACC-257
[4] = test system: A498
[5] = test system: MCF7
[6] = test system: T47D
[7] = test system: TK-10
[8] = test system: A549
[9] = test system: K562
[10] = test system: BT-549
[11] = test system: OVCAR-4
[12] = test system: LOX IMVI
[13] = test system: OVCAR-8
[14] = test system: NCI-H23
[15] = test system: UACC-62
[16] = test system: DU-145
[17] = test system: 786-0
[18] = test system: OVCAR-3
[19] = test system: MOLT-4
[20] = test system: NCI-H460

Row | SMILES | GI50 [1] | GI50 [2] | GI50 [3] | GI50 [4] | GI50 [5] | GI50 [6] | GI50 [7] | GI50 [8] | GI50 [9] | GI50 [10] | GI50 [11] | GI50 [12] | GI50 [13] | GI50 [14] | GI50 [15] | GI50 [16] | GI50 [17] | GI50 [18] | GI50 [19] | GI50 [20]
1 | CCNc1cc2oc(=O)cc(C(F)(F)F)c2cc1C | > 100 µM (inactive) | > 100 µM (inactive) | > 100 µM (inactive) | > 100 µM (inactive) | > 100 µM (inactive) | > 100 µM (inactive) | > 100 µM (inactive) | > 100 µM (inactive) | > 100 µM (inactive) | > 100 µM (inactive) | > 100 µM (inactive) | > 100 µM (inactive) | > 100 µM (inactive) | > 100 µM (inactive) | > 100 µM (inactive) | > 100 µM (inactive) | > 100 µM (inactive) | > 100 µM (inactive) | > 100 µM (inactive) | > 100 µM (inactive)
2 | COc1ccccc1N1C(=O)C2C3c4ccccc4C(OC(C)=O)(c4ccccc43)C2C1=O (stereo not given) | > 100 µM (inactive) | > 100 µM (inactive) | > 100 µM (inactive) | > 100 µM (inactive) | 72.3 µM (inactive) | > 100 µM (inactive) | > 100 µM (inactive) | > 100 µM (inactive) | > 100 µM (inactive) | 49.9 µM (inactive) | 30.4 µM (inactive) | > 100 µM (inactive) | 43 µM (inactive) | > 100 µM (inactive) | > 100 µM (inactive) | > 100 µM (inactive) | 39.3 µM (inactive) | > 100 µM (inactive) | > 100 µM (inactive) | > 100 µM (inactive)
3 | C=CC1C(OC2OC(CO)C(O)C(O)C2O)OC=C(C(=O)OC)C1CC1CC(=O)CC(CCc2ccc(O)cc2)O1 (stereo not given) | > 100 µM (inactive) | > 100 µM (inactive) | > 100 µM (inactive) | > 100 µM (inactive) | > 100 µM (inactive) | > 100 µM (inactive) | > 100 µM (inactive) | > 100 µM (inactive) | > 100 µM (inactive) | > 100 µM (inactive) | > 100 µM (inactive) | > 100 µM (inactive) | > 100 µM (inactive) | > 100 µM (inactive) | > 100 µM (inactive) | > 100 µM (inactive) | > 100 µM (inactive) | > 100 µM (inactive) | > 100 µM (inactive) | > 100 µM (inactive)
4 | CC(=O)CCC[C@@H](C)[C@@H]1O[C@H]([C@@]2(C)CCC(=O)O2)C[C@H]2C(CSc3ccccc3)C(=O)O[C@@H]12 (stereo not given in full) | 9.66 µM (inactive) | 14.3 µM (inactive) | 13.4 µM (inactive) | 27.4 µM (inactive) | 9.55 µM (inactive) | 17.9 µM (inactive) | 12.6 µM (inactive) | 13.8 µM (inactive) | 6.18 µM (inactive) | 11.6 µM (inactive) | 13.2 µM (inactive) | 12.4 µM (inactive) | 20 µM (inactive) | 17.9 µM (inactive) | 14.5 µM (inactive) | 14.6 µM (inactive) | 12.9 µM (inactive) | 13.8 µM (inactive) | 2.96 µM (inactive) | 20.7 µM (inactive)
5 | COC(=O)c1cc(C)n(CN(Cc2ccccc2)Cn2nc(C(=O)OC)cc2C)n1 | > 66.1 µM (inactive) | > 43.1 µM (inactive) | > 100 µM (inactive) | > 100 µM (inactive) | > 66.5 µM (inactive) | > 48.3 µM (inactive) | > 100 µM (inactive) | > 100 µM (inactive) | > 100 µM (inactive) | > 100 µM (inactive) | > 64.1 µM (inactive) | > 100 µM (inactive) | > 84.1 µM (inactive) | > 100 µM (inactive) | > 31.9 µM (inactive) | > 62.1 µM (inactive) | 68.1 µM (inactive) | > 100 µM (inactive) | > 100 µM (inactive) | > 100 µM (inactive)
6 | Cn1c(=O)c2nc(CCS)[nH]c2n(C)c1=O | > 100 µM (inactive) | > 100 µM (inactive) | > 100 µM (inactive) | > 100 µM (inactive) | > 100 µM (inactive) | > 100 µM (inactive) | 50.2 µM (inactive) | > 100 µM (inactive) | > 100 µM (inactive) | > 100 µM (inactive) | > 100 µM (inactive) | > 100 µM (inactive) | > 100 µM (inactive) | > 100 µM (inactive) | > 100 µM (inactive) | > 100 µM (inactive) | 51.2 µM (inactive) | > 100 µM (inactive) | > 100 µM (inactive) | > 100 µM (inactive)
7 | COc1ccc2nc3n(c2c1)C(c1c(F)cccc1F)SC3 (stereo not given) | 40.1 µM (inactive) | 34 µM (inactive) | > 100 µM (inactive) | 95.3 µM (inactive) | 32 µM (inactive) | 22.3 µM (inactive) | 77.4 µM (inactive) | 49 µM (inactive) | 50.4 µM (inactive) | > 100 µM (inactive) | 64.4 µM (inactive) | 47.3 µM (inactive) | 36.6 µM (inactive) | 25.9 µM (inactive) | 56.9 µM (inactive) | 42.3 µM (inactive) | 39.6 µM (inactive) | 28.6 µM (inactive) | 32.4 µM (inactive) | 35 µM (inactive)
8 | C/C(=N\Nc1nc2ccccc2o1)c1ccc2ccccc2n1 | 0.356 µM (active) | 1.47 µM (inactive) | 6.71 µM (inactive) | 2.55 µM (inactive) | 6.12 µM (inactive) | 0.279 µM (active) | 6.92 µM (inactive) | 4.2 µM (inactive) | 3.67 µM (inactive) | 20.7 µM (inactive) | 1.3 µM (inactive) | 2.86 µM (inactive) | 2.89 µM (inactive) | 8.75 µM (inactive) | 3.8 µM (inactive) | 4.41 µM (inactive) | 3.68 µM (inactive) | 0.52 µM (active) | 1.97 µM (inactive) | 3.7 µM (inactive)
9 | O=C(O)CN(CC(=O)O)C1CCCCC1N1CC(=O)OC(=O)C1 (stereo not given) | 49.1 µM (inactive) | > 100 µM (inactive) | > 100 µM (inactive) | > 100 µM (inactive) | 69.3 µM (inactive) | 51.3 µM (inactive) | > 100 µM (inactive) | > 100 µM (inactive) | 71.8 µM (inactive) | > 100 µM (inactive) | > 100 µM (inactive) | > 100 µM (inactive) | > 100 µM (inactive) | > 100 µM (inactive) | > 100 µM (inactive) | > 100 µM (inactive) | > 100 µM (inactive) | > 100 µM (inactive) | > 100 µM (inactive) | > 100 µM (inactive)
10 | CC1(C)OCC2OC3(c4nc(C#N)c(N)o4)OC(C)(C)OC3C2O1 (stereo not given) | > 100 µM (inactive) | > 100 µM (inactive) | > 100 µM (inactive) | > 100 µM (inactive) | > 100 µM (inactive) | > 100 µM (inactive) | > 100 µM (inactive) | > 100 µM (inactive) | > 53.3 µM (inactive) | > 100 µM (inactive) | > 100 µM (inactive) | > 100 µM (inactive) | > 100 µM (inactive) | > 100 µM (inactive) | > 100 µM (inactive) | > 100 µM (inactive) | > 100 µM (inactive) | > 100 µM (inactive) | > 100 µM (inactive) | > 100 µM (inactive)
11 | CC(C)(C)c1cc(C(P(=O)(c2ccccc2)c2ccccc2)P(=O)(c2ccccc2)c2ccccc2)cc(C(C)(C)C)c1O | 3.12 µM (inactive) | 3.18 µM (inactive) | 2.04 µM (inactive) | 2.74 µM (inactive) | 2.28 µM (inactive) | 2.9 µM (inactive) | 4.68 µM (inactive) | 2.89 µM (inactive) | 3.42 µM (inactive) | 3.36 µM (inactive) | 3.35 µM (inactive) | 1.92 µM (inactive) | 2.44 µM (inactive) | 2.84 µM (inactive) | 1.58 µM (inactive) | 3.3 µM (inactive) | 2.8 µM (inactive) | 2.3 µM (inactive) | 2.88 µM (inactive) | 2.11 µM (inactive)
12 | CN1C(=O)C(O)CC1c1ccc(C(F)(F)F)cc1 (stereo not given) | > 100 µM (inactive) | > 100 µM (inactive) | 44.1 µM (inactive) | > 100 µM (inactive) | > 100 µM (inactive) | > 100 µM (inactive) | > 100 µM (inactive) | > 100 µM (inactive) | > 100 µM (inactive) | > 100 µM (inactive) | > 100 µM (inactive) | > 100 µM (inactive) | > 100 µM (inactive) | > 100 µM (inactive) | > 100 µM (inactive) | > 100 µM (inactive) | > 100 µM (inactive) | > 100 µM (inactive) | > 100 µM (inactive) | > 100 µM (inactive)
13 | Clc1cc(Cl)cc(C2ON=C(c3ccccc3)N2C23CC4CC(CC(C4)C2)C3)c1 (stereo not given) | > 10 µM (inactive) | > 10 µM (inactive) | > 10 µM (inactive) | > 10 µM (inactive) | > 10 µM (inactive) | > 10 µM (inactive) | > 10 µM (inactive) | > 10 µM (inactive) | > 10 µM (inactive) | > 10 µM (inactive) | > 10 µM (inactive) | > 10 µM (inactive) | > 10 µM (inactive) | > 10 µM (inactive) | > 10 µM (inactive) | > 10 µM (inactive) | > 10 µM (inactive) | > 10 µM (inactive) | > 10 µM (inactive) | > 10 µM (inactive)
14 | COc1cc(Br)cc2nc(-c3cccs3)oc12 | > 43.2 µM (inactive) | > 83.8 µM (inactive) | > 100 µM (inactive) | > 55.3 µM (inactive) | 2.3 µM (inactive) | 6.15 µM (inactive) | 31.8 µM (inactive) | > 100 µM (inactive) | > 100 µM (inactive) | > 67.8 µM (inactive) | > 26.9 µM (inactive) | > 100 µM (inactive) | > 100 µM (inactive) | > 68.1 µM (inactive) | > 100 µM (inactive) | > 100 µM (inactive) | > 56 µM (inactive) | > 100 µM (inactive) | > 100 µM (inactive) | > 100 µM (inactive)
